The results in this text go back to ChEMBL document CHEMBL1201862, “PubChem BioAssay data set” (2004).

Molecules are shown by their SMILES.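 Briefly, cells in 96-well plates were exposed to five compound concentrations for 48 h, and endpoints were estimated by linear interpolation. Abbreviation: GI50, concentration required for 50% inhibition of growth.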 The source made the active and inactive calls. No stated cut-off is given here; in the data, active = GI50 up to about 1.1 µM and inactive = higher.

Common to all, as to experiment: growth of human tumour cells (NCI), 48 h
Test [1] relates to CAKI-1.
Test [2] relates to SW-620.
In test [3] the test system is M14.
Test [4] relates to A498.
The subject of test [5] is IGROV-1.
Test [6] has as its system HCT-116.
Test [7] relates to OVCAR-5.
In test [8] the test system is UO-31.
For test [9], the system named is M19-MEL.
For test [10], the system named is Malme-3M.
The test system of test [11] is SNB-75.
In test [12] the test system is NCI-H460.
Test [13] has as its system HCT-15.
For test [14], the system named is HT-29.
In test [15] the test system is UACC-257.
Test [16] relates to NCI-H522.
For test [17], the system named is HOP-62.
Test [18] relates to LXFL 529.
Test [19] deals with DMS-273.
In test [20] the test system is T47D.

`Cn1cc(-c2ccc3c4ccccc4n(C)c3c2)c2ccccc21`: the GI50 in test [1], in test [2], in [3], in [4], in test [5] and in [6] was > 100 µM (inactive) throughout. Besides, the GI50 in test [7], in test [8], in test [9], in [10], in test [11] and in [12] was > 100 µM (inactive) throughout. In addition, the GI50 is 36.6 µM in [13]; 89.9 µM (inactive) in test [14]; > 100 µM (inactive) in test [15]; > 100 µM (inactive) in test [16]; > 100 µM (inactive) in test [17]; > 100 µM (inactive) in test [18].

Take `COc1ccc(/C=N/C23CC4CC(CC(C4)C2)C3)cc1`: the GI50 in [1], in [2], in [3], in [4], in test [5] and in [6] was > 100 µM (inactive) each time. Besides, the GI50 in test [7] is > 100 µM (inactive); in test [8], > 100 µM (inactive); in test [9] it was > 10 µM (inactive); in test [10] it was > 100 µM (inactive); in [11] it was > 100 µM (inactive); in [12], > 100 µM (inactive). Besides, the GI50 in test [13] is more than 100 µM; in [14] it was > 100 µM (inactive); in [15], > 100 µM (inactive); in [16], > 100 µM (inactive); in test [19] it was > 10 µM (inactive); in test [17] it was > 100 µM (inactive).

Consider `COc1ccccc1C(=O)Nc1ccc(Cl)c(C(=O)OC(C)C)c1`, for which the GI50 is > 67 µM (inactive) in [1]; > 61.1 µM (inactive) in test [2]; > 54.6 µM (inactive) in test [3]; > 50.9 µM (inactive) in test [4]; > 66.8 µM (inactive) in test [5]; 39.1 µM (inactive) in test [6]. Also, the GI50 in test [7] is > 50 µM (inactive); in [8], 18.5 µM (inactive); in [9], 30.8 µM (inactive); in [10] it was 4.45 µM (inactive); in [11], 35.4 µM (inactive); in [12], 37.4 µM (inactive). The GI50 in [13] was 32.1 µM; in [20], 20.1 µM (inactive); in test [14], 27.4 µM (inactive); in test [15], 30.5 µM (inactive); in test [16], 33.2 µM (inactive); in test [19], 35.3 µM (inactive). Moreover, the GI50 in test [17] is 48 µM (inactive).

For the molecule `NC(CCc1ncc(C(=O)O)s1)C(=O)O` (configuration not stated), the GI50 in test [1], in [2], in test [3], in test [4], in test [5] and in test [6] was > 100 µM (inactive) in each case. The GI50 was > 100 µM (inactive) in test [8]; > 100 µM (inactive) in test [9]; > 100 µM (inactive) in test [10]; > 100 µM (inactive) in [11]; > 100 µM (inactive) in test [12]; more than 100 µM in [13]. The GI50 in [14], in test [15], in test [16] and in test [18] was > 100 µM (inactive) each time.

As for `CCCCC#COS(=O)(=O)c1ccc(C)cc1`, the GI50 in test [1] was > 100 µM (inactive); in [2], > 100 µM (inactive); in test [3], > 100 µM (inactive); in test [4], > 100 µM (inactive); in test [5] it was > 100 µM (inactive); in test [6], 82.8 µM (inactive). The GI50 in test [7] was > 100 µM (inactive); in [8], > 100 µM (inactive); in [9], 69.7 µM (inactive); in [10], > 100 µM (inactive); in [12], 79.3 µM (inactive); in test [13], more than 100 µM. Moreover, the GI50 in test [14] is > 100 µM (inactive); in test [15], > 100 µM (inactive); in [16] it was 54.1 µM (inactive); in [17], > 100 µM (inactive); in test [18], 64 µM (inactive).

For `O=S1(=O)OCCOS(=O)(=O)C1C1c2ccccc2-c2ccccc21`, the GI50 in [1] was 29.7 µM (inactive); in [2] it was 26.9 µM (inactive); in test [3], 38.3 µM (inactive); in test [4] it was > 100 µM (inactive); in [5], 23.5 µM (inactive); in test [6], 28.6 µM (inactive). The GI50 in test [7] was 72.3 µM (inactive); in test [8], 28.7 µM (inactive); in [10] it was 56.2 µM (inactive); in test [11], 2.41 µM (inactive); in test [12] it was 11.4 µM (inactive); in [13], 35.4 µM. The GI50 in test [20] is 93.8 µM (inactive); in [14], 34 µM (inactive); in [15] it was 36.4 µM (inactive); in [16], 20.7 µM (inactive); in [17], 29.3 µM (inactive).

As for `C=C1C[C@]23C[C@@]1(O)CC[C@H]2[C@@]12C=C[C@H](O)[C@@](C)(C(=O)O1)[C@H]2[C@@H]3C(=O)O` [GIBBERELLIN A3], the GI50 in [1], in test [2], in test [3], in test [5], in test [6] and in test [7] was > 100 µM (inactive) in each case. For the same molecule, the GI50 was > 100 µM (inactive) in test [8]; > 100 µM (inactive) in test [9]; > 100 µM (inactive) in test [10]; > 100 µM (inactive) in test [11]; > 100 µM (inactive) in [12]; more than 100 µM in test [13]. Further, the GI50 in test [14], in test [15], in test [16], in test [19] and in test [17] was > 100 µM (inactive) in each case.

With `C=CCOC1=C(OC(C)=O)C(C2COC(C)(C)O2)OC1=O` (configuration not stated), the GI50 in test [1] was 1.95 µM (inactive); in test [2], 16.5 µM (inactive); in test [3] it was 21.2 µM (inactive); in test [4], > 100 µM (inactive); in test [5], 31.6 µM (inactive); in test [6], 17.6 µM (inactive). The GI50 in test [7] was 17.5 µM (inactive); in test [8] it was 18.6 µM (inactive); in [10], 18.8 µM (inactive); in test [11], 71.3 µM (inactive); in [12], 22 µM (inactive); in test [13] it was 16.3 µM. The GI50 in test [20] is 18.5 µM (inactive); in test [14], 19.9 µM (inactive); in [15], 18.2 µM (inactive); in [16], 2.19 µM (inactive); in test [17] it was > 100 µM (inactive).

With `CC(C)(C)OC(=O)NCC(=O)N(CCc1ccc(Cl)c(Cl)c1)CCN1CCCC1`, the GI50 was 18.4 µM (inactive) in [1]; 16.6 µM (inactive) in test [2]; 14.3 µM (inactive) in test [3]; 17.8 µM (inactive) in [4]; 15.8 µM (inactive) in test [5]; 13.7 µM (inactive) in [6]. Further, the GI50 was 18.9 µM (inactive) in test [7]; 14.6 µM (inactive) in [8]; 19.8 µM (inactive) in test [10]; 17.5 µM (inactive) in test [11]; 15.8 µM (inactive) in test [12]; 17.7 µM in [13]. The GI50 in [20] was 22.7 µM (inactive); in test [14] it was 6.32 µM (inactive); in test [15], 15.7 µM (inactive); in test [16], 14.5 µM (inactive); in test [17], 13.5 µM (inactive).

For `O=C(N/C(=C\c1ccccc1)C1Nc2ccccc2C(=O)O1)c1ccccc1` (configuration not stated), the GI50 in [1] was > 100 µM (inactive); in test [2] it was 23.6 µM (inactive); in [3] it was 20.2 µM (inactive); in test [4], > 100 µM (inactive); in [5], 34.3 µM (inactive); in test [6], 18.3 µM (inactive). Also, the GI50 in test [7] was > 100 µM (inactive); in test [8], 19.6 µM (inactive); in test [10] it was 16.6 µM (inactive); in [11], 38.8 µM (inactive); in [12], 16.6 µM (inactive); in test [13] it was 31.8 µM. Also, the GI50 is > 100 µM (inactive) in [20]; 32.7 µM (inactive) in test [14]; 20.6 µM (inactive) in [15]; 16.3 µM (inactive) in test [16]; 20.4 µM (inactive) in test [17].

On to `NS(=O)(=O)c1cc(C(=O)O)c(Cl)c([N+](=O)[O-])c1Cl`, for which the GI50 in [1], in test [2], in test [3], in [4], in [5] and in [6] was > 100 µM (inactive) each time. Moreover, the GI50 is > 100 µM (inactive) in test [7]; > 100 µM (inactive) in test [8]; > 100 µM (inactive) in test [10]; > 100 µM (inactive) in test [11]; > 100 µM (inactive) in test [12]; more than 100 µM in test [13]. Also, the GI50 in [20], in [14], in test [15], in [16] and in [17] was > 100 µM (inactive) in each case.

In the case of `CCOC1=NC(C(F)(F)F)(C(F)(F)F)N=C(/N=C(/N)N(C)C(C(C)C)P(=O)(OC(C)C)OC(C)C)O1` (configuration not stated), the GI50 was > 100 µM (inactive) in test [1]; 49.5 µM (inactive) in test [2]; > 100 µM (inactive) in [3]; > 100 µM (inactive) in test [4]; 69.8 µM (inactive) in [5]; 82.2 µM (inactive) in [6]. Besides, the GI50 in test [7] was > 100 µM (inactive); in [8], > 100 µM (inactive); in test [10], 54.1 µM (inactive); in [11] it was 44.8 µM (inactive); in test [12] it was > 100 µM (inactive); in test [13], 58.7 µM. Further, the GI50 was 52.7 µM (inactive) in [20]; > 100 µM (inactive) in [14]; 70.3 µM (inactive) in [15]; 27.9 µM (inactive) in [16]; > 100 µM (inactive) in [17].
